From a melting point compilation (Tetko et al.; mined from patent text by program, amines drawn as free bases though some values may be those of a salt)

Structure (SMILES) | melting point
O=C1NC(=O)C(S(=O)(=O)c2ccc3ccccc3c2)S1 (stereo not given) | 196 to 197 °C
CCCCCCCCCC(=O)Oc1ccc(/C=C2/C(=O)Nc3cc(OC)c(OC)cc32)cc1 | 138 to 140 °C
CC(C)CC(NC(c1ccc(-c2ccc(S(C)(=O)=O)cc2)cc1)C(F)(F)F)C(=O)NC(C#N)CC(=O)OCc1ccccc1 (stereo not given) | 111 °C
CC1(N2Cc3cc(CNC(=O)Cc4ccc(Cl)cc4)ccc3C2=O)CCC(=O)NC1=O (stereo not given) | 230 to 232 °C
CN1CCN(Cc2nc(C(N)=O)nn2-c2ccc(Cl)cc2C(=O)c2ccccc2Cl)CC1 | 167 to 169 °C
NOCc1ccc2c(c1)-c1n[nH]c(=O)c3cccc(c13)O2 | 294 to 296 °C
O=C(O)CCCCCOc1ccc(CCc2ccncc2)cc1 | 180 to 182 °C
O=C(CF)NCc1ccc2ccn(C3CCN(CCc4ccc(F)cc4)CC3)c2c1 | 106 to 108 °C
Cc1ccnc(C(=O)c2[nH]c3cc(Cl)ccc3c2NC(=O)CCN(C)C)c1 | 170 to 171 °C
N#Cc1ccc2nc(C(F)(F)F)[nH]c2c1 | 194 to 196 °C
CN1CCC[C@@H]1Cc1c[nH]c2ccc(C=CC(C)(C)O)cc12 | 155 to 158 °C
CCNC(=O)Nc1nc2cc(-c3cccnc3)cc(N3CCC(N(C)C)C3)n2n1 (stereo not given) | 248 to 250 °C
CC(=O)CSc1ncc(C)n1C | 65 to 67 °C
CNC(=O)[C@@H](C[C@H](O)[C@H](CC1CCCCC1)NC(=O)OC(C)(C)C)C(C)(C)O | 174 to 175 °C
COC(=O)NC1=NCC(c2ccccc2C)N1C (stereo not given) | 158 to 161 °C
CC1(c2cc(-c3ccc(F)cc3F)cc(C(=O)Nc3ccc(S(=O)(=O)C(F)(F)F)cc3Cl)c2O)CCCCC1 | 114 to 115 °C
COC(=O)C(=O)c1ccc(OCOc2ccccc2)cc1 | 52 to 54 °C
CC(C)(C)OC(=O)N1CCN2C(=O)OC(Cc3ccccc3)(Cc3ccccc3)C2C1 (stereo not given) | 188 to 189 °C
Cc1ccc(Oc2c(N3C(C)CCC3C)cc(C(=O)O)cc2S(N)(=O)=O)cc1 (stereo not given) | 191 to 193 °C
O=C(CCCC(=O)C(F)(F)F)c1cccc(OCc2ccccc2)c1 | 75.3 to 80.3 °C
O=C(NC1CC1)c1cccc(-c2cccc3oc(Cc4cccc(C(F)(F)F)c4)cc23)c1 | 120 to 121 °C

Structure (SMILES) | melting point
COC(=O)c1nc(Cl)nc(NCc2ccco2)c1Cl | 110 to 112 °C
CC1(C)C=C(N2Cc3ccccc3C2=O)c2cc(S(=O)(=O)C(F)(F)C(F)(F)C(F)(F)F)ccc2O1 | 164 to 166 °C
Nc1nc2ccc(OC(F)(F)F)c([N+](=O)[O-])c2s1 | 180 °C
CS(=O)(=O)Nc1ccc(C2CCN(c3ccncc3)CC2)cc1 | 269 to 271 °C
COc1cccc2c1CCC=C2N1CCOCC1 | 80 to 90 °C
CN(CC1=NC(=S)N=N1)C(COCc1cc(C(F)(F)F)cc(C(F)(F)F)c1)C(c1ccccc1)c1ccccc1 (stereo not given) | 192 to 194 °C
CCCCCCCCCC(C)NC(=O)C=C(C)c1cccc(NC(=O)CCCC(=O)O)c1 (stereo not given) | 115 to 118 °C
CCCn1cc(C(N)=O)c(N)n1 | 160 to 163 °C
NC(=O)c1cccc2nc3n(c12)CCCN3c1ccc(Cl)cc1Cl | 198 to 200 °C
O=C(O)c1cccc(NCCOCc2ccccc2)c1C(=O)O | 158 to 160 °C
N#Cc1ccc(-c2cn3cc(Br)ccc3n2)cc1 | 218 to 219 °C
CC(CN1C(=O)C2(COc3cc4c(cc32)CCO4)c2ccccc21)OCOCc1ccccc1 (stereo not given) | 49 to 52 °C
CC(C)(C)OC(=O)CN(C(=O)CNC(=O)Nc1cnc2ccccc2c1)c1ccccc1 | 191 °C
Cc1nc(N2CCN(CCc3c[nH]c4ccccc34)C2=O)sc1C(=O)NCc1cccnc1 | 198 to 201 °C
CC1(C)CC(=O)C(S(=O)Cc2ccc(F)cc2)=C(O)C1 (stereo not given) | 122 to 125 °C
CCCCn1c(C)nnc1SC(N)=O | 112 to 114 °C
CS(=O)(=O)Nc1ccc(C(O)CCCNCCC(=O)CCC2CCCC2)cc1 (stereo not given) | 101 to 102 °C
O=C1c2ccccc2C(=O)N1CCN1CCC(=C2c3ccccc3C=Cc3ccccc32)CC1 | 190 °C
CS(=O)(=O)Nc1cnc([N+](=O)[O-])cn1 | 204 to 207 °C
COc1ccc(Sc2sc(S(N)(=O)=O)cc2C)cc1 | 107 to 110 °C
CCc1c(C)nc(-c2ccccc2)nc1NCC(=O)N(C)c1ccc(Cl)cc1 | 142 to 143 °C

Further lines, results first:

melting point | Structure (SMILES)
278 to 280 °C | CS(=O)(=O)n1c2cc(O)c(O)cc2c2cc(O)c(O)cc21
60 to 63 °C | CCCc1c(SC(=O)N(C)C)ccc(C(C)=O)c1OCCCC(=O)OCC
75.5 to 77.5 °C | O=C1OCC2Cc3cccc(F)c3OC12 (stereo not given)
178 to 179 °C | CN(N)C(=S)Nc1ccc(C#N)cc1
89.5 to 90.5 °C | CCCc1c2c(cc3c(=O)cc(C(=O)OCC)oc13)CC(C(=O)OCC)CC2 (stereo not given)
105 °C | O=C(C=C1OC(=O)c2ccccc21)c1ccccc1
167 to 169 °C | CCOC(=O)C(C)(C)n1c(=O)[nH]c2ccc(F)cc2c1=O
> 270 °C | O=c1cc(O)c2c([nH]1)CCCCC2
82 to 84 °C | CCOC(=O)c1c(-c2ccccc2)c2c3ccccc3ccn2c1C(C)C
153 °C | Cc1nc2c(O)c(C(=O)[C@@H]3OC(C)(C)O[C@H]3c3ccccc3)ccc2n1C1CC1
237 to 239 °C | Nc1ncc(-c2ccc([N+](=O)[O-])cc2-c2cccc(Cl)c2Cl)c(N)n1
94 to 95 °C | CC(C)(C)C(=O)C(=Cn1ccnc1)Oc1ccc(Cl)cc1
209 to 211 °C | N#Cc1c(Cl)cnc2cc(I)sc12
184 °C | CC(C)(C)C1NC(C(=O)O)CS1 (mixture of isomers)
> 240 °C | COc1cc(OC)c(-c2nncn2CC(C)C)cc1C=CC(=O)c1ccc(S(N)(=O)=O)cc1
106 to 108 °C | CCOC(=O)c1nn(-c2ccccc2Br)c(=O)c(C#N)c1C
71 to 72 °C | CC(=O)SCSc1cn(C)nn1
102 °C | CCOCCc1cc(O)ccc1N
127 to 129 °C | c1ccc2c(N3CCCC3)nc(N3CCCC3)nc2c1
103 to 105 °C | CC(=O)OC1C(C)OC(Oc2ncn(Cc3ccc([N+](=O)[O-])cc3)c2C(N)=O)C(OC(C)=O)C1OC(C)=O (stereo not given)

melting point | Structure (SMILES)
189 to 190 °C | CC(=O)OCCCCn1c(=O)sc2c(=O)[nH]c(N)nc21
101 to 103 °C | Cc1c(C)c2c(c(C)c1NCc1cccs1)C(c1ccc(C(C)C)cc1)C(C)(C)O2 (stereo not given)
146 to 147 °C | COC(=O)c1ccc2c(nnn2C)c1C(=O)OC
200 to 201 °C | Cc1cc(C(N)=O)ncc1C(c1c(F)ccc(F)c1F)S(=O)(=O)c1ccc(F)c(F)c1 (stereo not given)
169 to 170 °C | NC(=O)N1CC(Oc2cccc(F)c2)C1
138 to 140 °C | CCCc1c(OCCCCCCc2cc(O)c(O)c(C(C)C)c2)ccc(C(=O)O)c1O
111 to 113 °C | COc1cc(C)c2c(c1)CCN2c1nc(Cl)cn(CCSC)c1=O
210 to 215 °C | CN(C(=O)C(F)(F)F)C1(C)CN(c2cc3c(cc2F)c(=O)c(C(=O)O)cn3C2CC2)C1
218 °C | O=C(O)c1c(O)ccc2ccccc12
314 °C | CCC(C)(C)c1cc(-c2c[nH]c(C=C3SC(N4CCOCC4)=NC3=O)c2)ccc1O
69 to 70 °C | COC(=O)c1cccnc1SCc1cccc(OC)c1
200 to 217 °C | NC(=O)NC(=O)c1coc2ccccc2c1=O
80 to 81 °C | CCCCCCCCCCCCCCCCCCOc1ccc(OCc2ccccc2)c(C(=O)O)c1
76 to 76.5 °C | CCCCCCCCCCCCCCCC(=O)N[C@@H](CSC[C@H](O)[C@H](O)CO)C(=O)O
86 to 88 °C | Nc1ccc(-c2cc3ccccn3c2C(=O)CCC(=O)O)cc1
110 to 112 °C | Fc1ccc(Cc2ccc(NC3=NCCN3)cc2)cc1
163 to 164 °C | NNC(=O)C(Cc1cccs1)NC(=O)[C@H](Cc1cccc2ccccc12)NC(=O)OCc1ccccc1 (mixture of isomers)
178 to 180 °C | O=c1[nH]c2ncc(-c3ccc(O)cc3)nc2n1CC1CCCN1 (stereo not given)
113 to 114 °C | CCOCCOCCOCC1(c2ccc(Oc3cncc4sc(-c5nnc(N)o5)cc34)cc2)CC1
178 to 181 °C | CCOC(=O)COc1ccc2cc(-c3cc4ccccc4s3)ccc2c1Br

melting point | Structure (SMILES)
155 to 156 °C | CCOC(=O)c1cc2c3ccccc3n(Cc3ccccc3)c2nc1N1CCCCC1
164 to 170 °C | COc1ccc(N2CCOCC2)c2sc(NC(=O)N3CC4CCC3CO4)nc12 (stereo not given)
97 °C | CCCN1C(=O)C2CC2(c2ccc(N)cc2)C1=O (stereo not given)
125 to 130 °C | O=C(OCc1ccccc1O)c1cc(O)c2c(c1)C(=O)c1cccc(O)c1C2=O
75 °C | CC(=O)OCCCN(C)CCN(C)C(=O)[C@@H]1CCCN1S(=O)(=O)c1ccc(Cl)c(COc2cccc3c(-n4ccnc4)cc(C)nc23)c1Cl
79 to 82 °C | c1ccc(N(c2ccccc2)c2ccsc2)cc1
157 to 158 °C | Cc1ccc(CSc2nc3cc4c(cc3[nH]2)CCC4)nc1
149 to 153 °C | CCOC(=O)c1cn(C2CC2)c2c(Cl)c(F)ccc2c1=O
105 °C | CCCCc1cc2cc([N+](=O)[O-])ccc2[nH]1
108 to 110 °C | COc1ccc(OC(C(=O)O)c2ccccc2)cc1 (stereo not given)
116 to 117 °C | CCOC(=O)c1cn(Cc2ccccc2)nc1N(Cc1ccccc1)C(=O)Nc1ccccc1
88 to 89 °C | Cc1ccc(C)c(OCc2ccccc2C(=O)c2ccnn2C)c1
> 270 °C | CN1CCC(C2=C(C#N)C(c3cccc4nonc34)c3c[nH]nc3N2)CC1 (stereo not given)
49 to 52 °C | Nc1c(Cl)cc(C(O)CNCCCCCOCCc2cc3ccccc3o2)cc1Cl (stereo not given)
175 to 177 °C | CC(=O)Nc1ccc(-c2ccc(C(C)O)o2)cc1 (stereo not given)
166 to 167 °C | CCCCOc1cc2c(Nc3cc(OC)c(Cl)cc3Cl)c(C#N)cnc2cc1OCCOC
140 to 141 °C | C[C@@H](Cn1ncc2ccc3oc(C(=O)OCc4ccccc4)cc3c21)NC(=O)OCc1ccccc1
135 to 136 °C | NC(=O)N(O)Cc1ccc(OCCc2noc(-c3ccccc3)n2)cc1
